Legend:
Paired box protein Pax-3 [1] = biological target: T1, Paired box protein Pax-3 (Homo sapiens, UniProt P23760); test: Inhibition of PAX3-FOXO1 (unknown origin) fusion protein expressed human Rh4 cells cotransfected with ALK-Luc incubated for 24 hrs by Steady-Glo luciferase assay
Paired box protein Pax-3 [2] = biological target: T1, Paired box protein Pax-3; test: Inhibition of PAX3-FOXO1 (unknown origin) fusion protein expressed human Rh4 cells cotransfected with CMV-Luc incubated for 24 hrs by Steady-Glo luciferase assay

T1 sequence (P23760 whole entry, the tested form may be a part): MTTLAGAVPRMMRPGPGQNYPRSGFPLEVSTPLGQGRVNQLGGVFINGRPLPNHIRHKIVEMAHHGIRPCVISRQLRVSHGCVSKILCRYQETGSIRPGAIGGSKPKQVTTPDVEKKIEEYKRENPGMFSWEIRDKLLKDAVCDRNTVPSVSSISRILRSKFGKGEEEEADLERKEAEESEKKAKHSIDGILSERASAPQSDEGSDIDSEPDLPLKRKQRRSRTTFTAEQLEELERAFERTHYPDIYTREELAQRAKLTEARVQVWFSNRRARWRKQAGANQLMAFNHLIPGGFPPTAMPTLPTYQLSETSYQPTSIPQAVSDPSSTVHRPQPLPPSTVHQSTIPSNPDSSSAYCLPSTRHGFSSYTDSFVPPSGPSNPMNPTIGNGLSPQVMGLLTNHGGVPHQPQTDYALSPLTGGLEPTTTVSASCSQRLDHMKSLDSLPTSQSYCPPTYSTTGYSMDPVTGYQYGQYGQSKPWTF

Row | SMILES | IC50 (Paired box protein Pax-3 [1]) | IC50 (Paired box protein Pax-3 [2])
1 | COC1=C(C)C(=O)c2c(cn(C)c(=O)c2NCCS(=O)(=O)Oc2c(C)c(OC)c(O)c3c[n+](C)ccc23)C1=O | 5.4 µM | 9.4 µM
2 | COC1=C(C)C(=O)c2c(cn(C)c(=O)c2NCCS(=O)(=O)Oc2c(C)c(OC)c(O)c3c[n+](C)c(C(=O)O)cc23)C1=O | 5.7 µM | 9.8 µM
3 | COC(=O)c1cc2c(OS(=O)(=O)CCNc3c4c(cn(C)c3=O)C(=O)C(OC)=C(C)C4=O)c(C)c(OC)c(O)c2c[n+]1C | 6.4 µM | 11.8 µM

— BindingDB's records for doi:10.1021/acs.jnatprod.3c01041 (National Cancer Institute, 2024)
